ChEMBL document CHEMBL1201862, “PubChem BioAssay data set” (2004)
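Results reflect a 48-hour exposure of cells in 96-well plates to compound at five concentrations. Here, GI50 denotes the concentration required for 50% inhibition of growth.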 Active and inactive are the calls of the source. No stated cut-off is given here; in the data, active = GI50 up to about 1.1 µM and inactive = higher.

Columns and labels:
Assay in all cases: DTP human tumour cell line panel, 48 h
A498 = system: A498
CAKI-1 = system: CAKI-1
CCRF-CEM = system: CCRF-CEM
HCC 2998 = system: HCC 2998
HCT-116 = system: HCT-116
HCT-15 = system: HCT-15
HT-29 = system: HT-29
IGROV-1 = system: IGROV-1
K562 = system: K562
MOLT-4 = system: MOLT-4
NCI-H522 = system: NCI-H522
SF-295 = system: SF-295
SK-MEL-2 = system: SK-MEL-2
SN12C = system: SN12C
SNB-75 = system: SNB-75
TK-10 = system: TK-10
UACC-257 = system: UACC-257
OVCAR-3 = system: OVCAR-3

Compound | GI50 (A498) | GI50 (CAKI-1) | GI50 (CCRF-CEM) | GI50 (HCC 2998) | GI50 (HCT-116) | GI50 (HCT-15) [µM] | GI50 (HT-29) | GI50 (IGROV-1) | GI50 (K562) | GI50 (MOLT-4) | GI50 (NCI-H522) | GI50 (SF-295) | GI50 (SK-MEL-2) | GI50 (SN12C) | GI50 (SNB-75) | GI50 (TK-10) | GI50 (UACC-257) | GI50 (OVCAR-3)
CS(=O)(=O)NNS(=O)(=O)c1ccccc1 | > 100 µM (inactive) | > 100 µM (inactive) | > 100 µM (inactive) | > 100 µM (inactive) | > 100 µM (inactive) | > 100 | > 100 µM (inactive) | > 100 µM (inactive) | > 100 µM (inactive) | > 100 µM (inactive) | > 100 µM (inactive) | > 100 µM (inactive) | > 100 µM (inactive) | > 100 µM (inactive) | > 100 µM (inactive) | > 100 µM (inactive) | > 100 µM (inactive) | 
COc1cccc(C2N3CCCCC3[C@@H]3c4[nH]c5ccccc5c4CCN23)c1OC (some centres undefined) | 11.4 µM (inactive) | 16.2 µM (inactive) | 17.3 µM (inactive) |  | 17.3 µM (inactive) | 17.1 | 12.9 µM (inactive) | 18.2 µM (inactive) | 14.7 µM (inactive) | 17.5 µM (inactive) |  | 17.6 µM (inactive) | 14.5 µM (inactive) | 16.9 µM (inactive) |  | 19.3 µM (inactive) | 15.9 µM (inactive) | 13.1 µM (inactive)
CC/C(=N/O)c1ccc2[nH]c3c(C)cc([N+](=O)[O-])c(C)c3c2c1 |  | > 100 µM (inactive) | 15.1 µM (inactive) | 83.8 µM (inactive) | 41.8 µM (inactive) | 51.1 | 37.4 µM (inactive) |  | 20.1 µM (inactive) | 29.6 µM (inactive) | 22.9 µM (inactive) | 52 µM (inactive) | > 100 µM (inactive) | 76.2 µM (inactive) | 57.3 µM (inactive) | 15.2 µM (inactive) | 95.1 µM (inactive) | 36.1 µM (inactive)
CC1(C)C(=NNC(=S)NN)C(C)(C)C1=NNC(=S)NN |  | > 100 µM (inactive) | 60.8 µM (inactive) | > 100 µM (inactive) |  |  | > 100 µM (inactive) | > 100 µM (inactive) | 43.2 µM (inactive) |  | 75 µM (inactive) | > 100 µM (inactive) | > 100 µM (inactive) | > 100 µM (inactive) | 98.4 µM (inactive) | > 100 µM (inactive) | > 100 µM (inactive) | > 100 µM (inactive)
CN[C@@H](C)[C@@H](N)c1ccccc1 | > 100 µM (inactive) | > 100 µM (inactive) | > 100 µM (inactive) | > 100 µM (inactive) | > 100 µM (inactive) | > 100 | > 100 µM (inactive) | > 100 µM (inactive) | > 100 µM (inactive) | > 100 µM (inactive) | > 100 µM (inactive) | > 100 µM (inactive) |  | > 100 µM (inactive) | 62.8 µM (inactive) | > 100 µM (inactive) | > 100 µM (inactive) | > 100 µM (inactive)
Cc1cc2c(C=O)n[nH]c2c(C#N)c1C | 29.2 µM (inactive) |  | > 100 µM (inactive) | > 100 µM (inactive) | 30.4 µM (inactive) | 32.4 | 53.6 µM (inactive) | 67 µM (inactive) | > 100 µM (inactive) | > 100 µM (inactive) | 10.4 µM (inactive) | 44.1 µM (inactive) | > 100 µM (inactive) | 29.3 µM (inactive) | 7.43 µM (inactive) | > 100 µM (inactive) | 43.5 µM (inactive) | 48 µM (inactive)
Nc1ccc2nc(NCc3ccc(F)cc3)cnc2c1 |  |  | > 100 µM (inactive) | > 100 µM (inactive) | > 100 µM (inactive) | > 100 | > 100 µM (inactive) | > 100 µM (inactive) | > 100 µM (inactive) | 50.1 µM (inactive) | > 100 µM (inactive) | > 100 µM (inactive) | > 100 µM (inactive) | > 100 µM (inactive) | 29.2 µM (inactive) | > 100 µM (inactive) |  | > 100 µM (inactive)
COc1ccc(CC2NCCc3cc(OC)c(OC)cc32)cc1 (centres undefined) |  | > 100 µM (inactive) | > 100 µM (inactive) | > 100 µM (inactive) | > 100 µM (inactive) | > 100 | > 100 µM (inactive) | > 100 µM (inactive) |  | > 100 µM (inactive) | > 100 µM (inactive) | > 100 µM (inactive) | > 100 µM (inactive) | > 100 µM (inactive) | > 100 µM (inactive) | > 100 µM (inactive) | > 100 µM (inactive) | > 100 µM (inactive)
CC1=C(C(=O)Nc2ccccc2C)C(c2ccccc2O)C(C(=O)Nc2ccccc2C)=C(C)N1 | 21.4 µM (inactive) | 23.4 µM (inactive) | 24.6 µM (inactive) | 15.9 µM (inactive) | 18.4 µM (inactive) | 16 | 25.7 µM (inactive) | 17.6 µM (inactive) | 25.2 µM (inactive) | 27.5 µM (inactive) |  | 18.6 µM (inactive) | 17.1 µM (inactive) | 19.5 µM (inactive) | 24.5 µM (inactive) | 29.2 µM (inactive) | 22 µM (inactive) | 17.3 µM (inactive)
CCOC(=O)COc1cccc2c1C(=O)CCO2 | > 100 µM (inactive) | > 100 µM (inactive) | > 100 µM (inactive) | > 100 µM (inactive) | > 100 µM (inactive) | > 100 | > 100 µM (inactive) | > 100 µM (inactive) | > 100 µM (inactive) | > 100 µM (inactive) | > 100 µM (inactive) | > 100 µM (inactive) | > 100 µM (inactive) | > 100 µM (inactive) |  | > 100 µM (inactive) | > 100 µM (inactive) | > 100 µM (inactive)
N#CC(C(=N/O)/C(=N\O)C(C#N)c1ccccc1)c1ccccc1 (centres undefined) | > 100 µM (inactive) |  | > 100 µM (inactive) | > 100 µM (inactive) | > 100 µM (inactive) | > 100 | > 100 µM (inactive) | > 100 µM (inactive) | > 100 µM (inactive) | > 100 µM (inactive) | > 100 µM (inactive) | > 100 µM (inactive) | > 100 µM (inactive) | > 100 µM (inactive) | > 100 µM (inactive) | > 100 µM (inactive) | > 100 µM (inactive) | > 100 µM (inactive)
N#CC(Sc1ccccc1)C(N)=O (centres undefined) | > 100 µM (inactive) | > 100 µM (inactive) | > 100 µM (inactive) | > 100 µM (inactive) | > 100 µM (inactive) | > 100 | > 100 µM (inactive) | > 100 µM (inactive) | > 100 µM (inactive) | > 100 µM (inactive) | > 100 µM (inactive) | > 100 µM (inactive) |  | > 100 µM (inactive) | > 100 µM (inactive) | > 100 µM (inactive) | > 100 µM (inactive) | > 100 µM (inactive)
CCOC(=O)/C(=C/c1ccc(C(=O)OC)cc1)N(CC)CC |  | 41.6 µM (inactive) | 30.6 µM (inactive) | 99.5 µM (inactive) | 37.2 µM (inactive) | 33.3 |  | > 100 µM (inactive) | 26.2 µM (inactive) | 29.1 µM (inactive) | 37.8 µM (inactive) | > 10 µM (inactive) | 44.9 µM (inactive) | 70.8 µM (inactive) |  | 71.6 µM (inactive) | 57.3 µM (inactive) | 22.4 µM (inactive)
CCCCNS(=O)(=O)c1ccc(-c2ccc3c(c2)-c2ccc(S(=O)(=O)NCCCC)cc2S3(=O)=O)cc1 | 11.4 µM (inactive) |  | 26.1 µM (inactive) | > 100 µM (inactive) | 14.9 µM (inactive) | 72.8 | 19.2 µM (inactive) | 32.8 µM (inactive) | 3.03 µM (inactive) | > 100 µM (inactive) | 14.5 µM (inactive) | 15 µM (inactive) | 12.9 µM (inactive) |  |  | 28.8 µM (inactive) | 13.1 µM (inactive) | 24.9 µM (inactive)
C[Si](C)(C)/C(Br)=C\CCN1C(=O)CCC1=O | > 100 µM (inactive) | > 100 µM (inactive) | > 100 µM (inactive) | > 100 µM (inactive) | > 100 µM (inactive) | > 100 | > 100 µM (inactive) | > 100 µM (inactive) | > 100 µM (inactive) | > 100 µM (inactive) |  | > 100 µM (inactive) | > 100 µM (inactive) | > 100 µM (inactive) | > 100 µM (inactive) | > 100 µM (inactive) | > 100 µM (inactive) | > 100 µM (inactive)
COc1ccc2cc3n(c2c1)CCc1cc(OC)c(OC)cc1-3 | 28.4 µM (inactive) | > 100 µM (inactive) | > 100 µM (inactive) | > 100 µM (inactive) |  |  | > 100 µM (inactive) | > 100 µM (inactive) | > 100 µM (inactive) | > 100 µM (inactive) | > 100 µM (inactive) | 51.2 µM (inactive) | > 100 µM (inactive) | > 100 µM (inactive) |  | > 100 µM (inactive) | 92.3 µM (inactive) | 
Nc1nc2sc3ccccc3c(=O)n2n1 |  | > 100 µM (inactive) | > 100 µM (inactive) | > 100 µM (inactive) | > 100 µM (inactive) | > 100 | > 100 µM (inactive) | > 100 µM (inactive) | > 100 µM (inactive) | > 100 µM (inactive) |  | > 100 µM (inactive) | > 100 µM (inactive) | > 100 µM (inactive) | > 100 µM (inactive) | > 100 µM (inactive) | > 100 µM (inactive) | > 100 µM (inactive)
C[C@@H](NC1CCCC[C@H]1O)c1ccccc1 (some centres undefined) | > 100 µM (inactive) |  | > 100 µM (inactive) | > 100 µM (inactive) | > 100 µM (inactive) | > 100 | > 100 µM (inactive) | > 100 µM (inactive) | > 100 µM (inactive) | > 100 µM (inactive) | > 100 µM (inactive) | > 100 µM (inactive) | > 100 µM (inactive) | > 100 µM (inactive) | 77.6 µM (inactive) | > 100 µM (inactive) | > 100 µM (inactive) | > 100 µM (inactive)
